In patent publication US12370182B2, “Bicyclic derivatives as GABAA A5 receptor modulators” (RICHTER GEDEON NYRT., priority 2018, dated 2025) one finds Ki data, which are given here for 26 molecules.

In the experiment the target is human recombinant GABAA α5β3γ2 receptor (Homo sapiens (Human), UniProt P18507+P31644). The experiment is described as follows: Binding assay, [3H]Ro151788 displacement on membranes of HEK cells. To be noted: 0.5 nM [3H]Ro151788, 60 minutes at 4° C., Cheng-Prusoff; read-out: hGABAA α5 Ki. As for the experimental part: The GABAA α5β3γ2 protein used for the receptor binding assay was derived from membranes produced from HEK cells (Millipore CYL3073) expressing the human recombinant GABAA α5β3γ2 receptor. Cells were stored and cultured in-house according to the instructions provided by the vendor (Millipor). Cell pellet was homogenized in 10 times modified Krebs Henseleit buffer (membrane preparation buffer): 20 mM Tris, 120 mM NaCl, 100 mM KCl, 25 mM CaCl2) and 25 mM MgCl2 pH=7.4 at 4° C. using Ultra Turrax (Janke&Kunkel) maximal speed for 15 seconds. The homogenate was centrifuged at 40,000 g for 30 minutes at 4° C. Supernatant was discarded and the resulting pellet was washed in membrane preparation buffer. Pellet was resuspended in membrane preparation buffer and aliquots of 1.4 mL ampulles were stored at −70° C. until use.
Chain of human recombinant GABAA α5β3γ2 receptor (P31644 32-462): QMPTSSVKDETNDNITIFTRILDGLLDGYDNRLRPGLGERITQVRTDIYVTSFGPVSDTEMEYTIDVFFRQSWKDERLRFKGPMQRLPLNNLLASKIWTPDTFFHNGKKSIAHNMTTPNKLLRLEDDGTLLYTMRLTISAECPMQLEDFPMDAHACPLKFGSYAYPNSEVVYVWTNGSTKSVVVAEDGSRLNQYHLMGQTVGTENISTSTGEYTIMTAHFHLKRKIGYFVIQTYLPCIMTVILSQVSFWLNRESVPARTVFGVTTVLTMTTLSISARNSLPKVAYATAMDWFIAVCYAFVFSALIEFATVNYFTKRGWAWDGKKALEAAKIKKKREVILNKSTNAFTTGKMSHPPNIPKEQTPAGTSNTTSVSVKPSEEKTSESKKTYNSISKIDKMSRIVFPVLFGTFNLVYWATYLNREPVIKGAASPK
Chain of human recombinant GABAA α5β3γ2 receptor (P28472 26-473 partner): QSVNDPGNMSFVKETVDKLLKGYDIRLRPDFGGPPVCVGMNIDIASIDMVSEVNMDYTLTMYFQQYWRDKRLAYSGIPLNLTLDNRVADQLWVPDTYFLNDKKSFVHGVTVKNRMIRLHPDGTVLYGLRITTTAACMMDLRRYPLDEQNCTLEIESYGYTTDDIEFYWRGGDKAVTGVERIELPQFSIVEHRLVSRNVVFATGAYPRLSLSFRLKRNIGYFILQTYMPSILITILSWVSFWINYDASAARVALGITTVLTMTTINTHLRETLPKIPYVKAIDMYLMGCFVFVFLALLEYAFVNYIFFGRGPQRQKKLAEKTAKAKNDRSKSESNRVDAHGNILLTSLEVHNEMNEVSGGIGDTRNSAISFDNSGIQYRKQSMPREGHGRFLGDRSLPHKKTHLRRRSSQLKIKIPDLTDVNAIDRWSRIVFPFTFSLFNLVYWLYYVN
Chain of human recombinant GABAA α5β3γ2 receptor (P18507 40-475): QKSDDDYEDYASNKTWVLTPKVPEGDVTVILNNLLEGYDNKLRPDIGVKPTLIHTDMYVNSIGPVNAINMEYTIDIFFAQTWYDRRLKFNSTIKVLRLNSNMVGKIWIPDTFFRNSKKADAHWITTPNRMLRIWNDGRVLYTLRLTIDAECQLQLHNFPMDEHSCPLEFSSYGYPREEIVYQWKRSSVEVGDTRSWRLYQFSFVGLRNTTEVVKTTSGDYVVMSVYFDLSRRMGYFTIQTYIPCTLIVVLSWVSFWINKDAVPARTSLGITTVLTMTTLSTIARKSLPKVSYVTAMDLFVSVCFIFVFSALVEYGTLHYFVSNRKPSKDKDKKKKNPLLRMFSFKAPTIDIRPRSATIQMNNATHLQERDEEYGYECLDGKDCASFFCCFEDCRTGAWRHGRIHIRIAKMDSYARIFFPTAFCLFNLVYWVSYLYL
Receptor binding assays were performed in 96-well format in deep-well plates. For each 96-well plate one ampulle of membrane homogenate was thawed and diluted in binding buffer (50 mM Tris pH=7.4, 100 mM KCl) and 200 μL was dispensed into each well. Radioligand [^3H]Ro151788 (Perkin Elmer: NET757250UC) was prepared in binding buffer and added to each well in 50 μL volume to give final concentration of 0.5 nM. Test compounds in suitable concentration(s) were added in additional 50 μL. The final assay volume was 300 μL. Incubation was carried out for 60 minutes at 4° C. For non-specific binding 10 μM unlabeled diazepam was used. After incubation samples were filtered over UniFilter® GF/B™ using Filtermate Harvester (Perkin Elmer) and washed with 5×1 mL binding buffer. The plate was dried at 40° C. for an hour and 40 μL Microscint (Perkin Elmer) scintillation cocktail was added to each well. The plate was read in Microbeta (Perkin Elmer).
The specific radioligand binding (SB) was defined as the difference between total binding (Tot) and the non-specific binding (NSB). Results are expressed as a percent inhibition of specific binding obtained in the presence of compound of interest.
For IC50 and Ki determination a minimum of six drug concentrations in triplicate were used. […] Ki values (i.e. inhibition constants) were calculated using the Cheng-Prusoff equation Ki=IC50/[1+(L/KD)], where [L] is the radioligand concentration and KD the affinity of the labelled ligand for receptor. KD was determined from the Saturation analyses.

Each structure is given as a SMILES string.

`CC(=O)N1Cc2ccc(OCc3c(-c4ccc(F)cc4)noc3C)nc2C1` [Example 50, 1-(2-{[3-(4-fluorophenyl)-5-methyl-1,2-oxazol-4-yl]methoxy}-5,7-dihydro-6H-pyrrolo[3,4-b]pyridin-6-yl)ethanone]: the Ki worked out at 0.8 nM.
The same measure for `Cn1nnc(-c2ccc(F)cc2)c1COc1ccc2c(n1)CN(C(=O)C1CCOC1)C2` (centres unmarked) [Example 71, 4-(4-fluorophenyl)-1-methyl-5-({[6-(oxolane-3-carbonyl)-5H,6H,7H-pyrrolo[3,4-b]pyridin-2-yl]oxy}methyl)-1H-1,2,3-triazole]: 56 nM; for `Cc1nnn(-c2ccc(F)cc2)c1COc1ccc2c(n1)CN(C(=O)c1ccccn1)C2` [Example 66, 2-(2-{[1-(4-fluorophenyl)-4-methyl-1H-1,2,3-triazol-5-yl]methoxy}-5H,6H,7H-pyrrolo[3,4-b]pyridine-6-carbonyl)pyridine]: 59 nM; for `Cc1onc(-c2ccc(F)cc2)c1COc1ccc2c(n1)CN(C(=O)CS(C)(=O)=O)C2` [Example 49, 1-(2-{[3-(4-fluorophenyl)-5-methyl-1,2-oxazol-4-yl]methoxy}-5H,6H,7H-pyrrolo[3,4-b]pyridin-6-yl)-2-methanesulfonylethan-1-one]: 1.2 nM.
The same measure for `CC(C)C(=O)N1Cc2ccc(OCc3c(-c4ccc(F)cc4)nnn3C)nc2C1` [Example 72, 1-(2-{[4-(4-fluorophenyl)-1-methyl-1H-1,2,3-triazol-5-yl]methoxy}-5H,6H,7H-pyrrolo[3,4-b]pyridin-6-yl)-2-methylpropan-1-one]: 29 nM; for `Cc1nnn(-c2ccc(F)cc2)c1COc1ccc2c(n1)CCN(C(=O)C1CC1)C2` [Example 19, 6-cyclopropanecarbonyl-2-{[1-(4-fluorophenyl)-4-methyl-1H-1,2,3-triazol-5-yl]methoxy}-5,6,7,8-tetrahydro-1,6-naphthyridine]: 49 nM; for `Cc1nnn(-c2ccc(F)cc2)c1COc1ccc2c(n1)CCN(C(=O)c1ccncc1)C2` [Example 25, 2-{[1-(4-fluorophenyl)-4-methyl-1H-1,2,3-triazol-5-yl]methoxy}-6-(pyridine-4-carbonyl)-5,6,7,8-tetrahydro-1,6-naphthyridine]: 29 nM.
As for `Cc1nnn(-c2ccc(F)cc2)c1COc1ccc2c(n1)CN(C(=O)C1CCOCC1)C2` [Example 55, 1-(4-fluorophenyl)-4-methyl-5-({[6-(oxane-4-carbonyl)-5H,6H,7H-pyrrolo[3,4-b]pyridin-2-yl]oxy}methyl)-1H-1,2,3-triazole], the figure is 13 nM; as for `CC(=O)N1CCc2ccc(OCc3c(C)nnn3-c3ccc(F)cc3)nc2C1` [Example 34, 1-(2-{[1-(4-fluorophenyl)-4-methyl-1H-1,2,3-triazol-5-yl]methoxy}-5,6,7,8-tetrahydro-1,7-naphthyridin-7-yl)ethan-1-one], 112 nM.
For the molecule `Cc1nnn(-c2ccc(F)cc2)c1COc1ccc2c(n1)CCN(C(=O)C1CC(=O)N(C(C)C)C1)C2` (centres unmarked) [Example 44, 4-(2-{[1-(4-fluorophenyl)-4-methyl-1H-1,2,3-triazol-5-yl]methoxy}-5,6,7,8-tetrahydro-1,6-naphthyridine-6-carbonyl)-1-(propan-2-yl)pyrrolidin-2-one], the Ki was determined as 54 nM.
Regarding `Cc1onc(-c2ccc(F)cc2)c1COc1ccc2c(n1)CCN(C(=O)C1CCC1)C2` [Example 4, 6-cyclobutanecarbonyl-2-{[3-(4-fluorophenyl)-5-methyl-1,2-oxazol-4-yl]methoxy}-5,6,7,8-tetrahydro-1,6-naphthyridine], the Ki worked out at 16 nM.
For the molecule `Cc1onc(-c2ccc(F)cc2)c1COc1ccc2c(n1)CCN(C(=O)N1CCOCC1)C2` [Example 82, 2-{[3-(4-fluorophenyl)-5-methyl-1,2-oxazol-4-yl]methoxy}-6-(morpholine-4-carbonyl)-5,6,7,8-tetrahydro-1,6-naphthyridine], the inhibition constant (Ki) amounted to 5.2 nM.
In the case of `Cc1nnn(-c2ccc(F)cc2)c1COc1ccc2c(n1)CCN(C(=O)[C@@H]1CCC(=O)N1C)C2` [Example 40, (5S)-5-(2-{[1-(4-fluorophenyl)-4-methyl-1H-1,2,3-triazol-5-yl]methoxy}-5,6,7,8-tetrahydro-1,6-naphthyridine-6-carbonyl)-1-methylpyrrolidin-2-one], the inhibition constant (Ki) came to 56 nM.
As for `Cc1nnn(-c2ccc(F)cc2)c1COc1ccc2c(n1)CCN(C(=O)C(C)C)C2` [Example 22, 1-(2-{[1-(4-fluorophenyl)-4-methyl-1H-1,2,3-triazol-5-yl]methoxy}-5,6,7,8-tetrahydro-1,6-naphthyridin-6-yl)-2-methylpropan-1-one], the figure is 57 nM; as for `Cc1nnn(-c2ccc(F)cc2)c1COc1ccc2c(n1)CCN(C(=O)Nc1ccccc1Cl)C2` [Example 79, N-(2-chlorophenyl)-2-{[1-(4-fluorophenyl)-4-methyl-1H-1,2,3-triazol-5-yl]methoxy}-5,6,7,8-tetrahydro-1,6-naphthyridine-6-carboxamide], 108 nM; as for `CC(=O)N1Cc2ccc(OCc3c(-c4ccc(Cl)cc4)nnn3C)nc2C1` [Example 68, 1-(2-{[4-(4-chlorophenyl)-1-methyl-1H-1,2,3-triazol-5-yl]methoxy}-5,7-dihydro-6H-pyrrolo[3,4-b]pyridin-6-yl)ethanone], 7.5 nM.
The same measure for `Cc1nnn(-c2ccc(F)cc2)c1COc1ccc2c(n1)CCN(C(=O)Nc1ccc(Cl)cc1)C2` [Example 81, N-(4-chlorophenyl)-2-{[1-(4-fluorophenyl)-4-methyl-1H-1,2,3-triazol-5-yl]methoxy}-5,6,7,8-tetrahydro-1,6-naphthyridine-6-carboxamide]: 37 nM.
The same measure for `CC(=O)N1Cc2ccc(OCc3c(-c4ccc(F)cc4)nnn3C)nc2C1` [Example 67, 1-(2-{[4-(4-fluorophenyl)-1-methyl-1H-1,2,3-triazol-5-yl]methoxy}-5,7-dihydro-6H-pyrrolo[3,4-b]pyridin-6-yl)ethanone]: 20 nM; for `Cc1nnn(-c2ccc(F)cc2)c1COc1ccc2c(n1)CN(C(=O)c1ccncc1)C2` [Example 64, 4-(2-{[1-(4-fluorophenyl)-4-methyl-1H-1,2,3-triazol-5-yl]methoxy}-5H,6H,7H-pyrrolo[3,4-b]pyridine-6-carbonyl)pyridine]: 25 nM.
Regarding `COC1CCC(C(=O)N2CCc3nc(OCc4c(C)nnn4-c4ccc(F)cc4)ccc3C2)CC1` (centres unmarked) [Example 35, 2-{[1-(4-fluorophenyl)-4-methyl-1H-1,2,3-triazol-5-yl]methoxy}-6-(4-methoxycyclohexanecarbonyl)-5,6,7,8-tetrahydro-1,6-naphthyridine], the Ki turned out to be 71 nM.
The same measure for `Cn1nnc(-c2ccc(F)cc2)c1COc1ccc2c(n1)CN(C(=O)CF)C2` [Example 70, 2-fluoro-1-(2-{[4-(4-fluorophenyl)-1-methyl-1H-1,2,3-triazol-5-yl]methoxy}-5,7-dihydro-6H-pyrrolo[3,4-b]pyridin-6-yl)ethanone]: 9.2 nM; for `Cc1nnn(-c2ccc(Cl)cc2)c1COc1ccc2c(n1)CCN(C(=O)[C@H]1CCOC1)C2` [Example 38, 2-{[1-(4-chlorophenyl)-4-methyl-1H-1,2,3-triazol-5-yl]methoxy}-6-[(3S)-oxolane-3-carbonyl]-5,6,7,8-tetrahydro-1,6-naphthyridine]: 18 nM.
For `Cc1onc(-c2ccc(F)cc2)c1COc1ccc2c(n1)CCN(C(=O)C1CCCO1)C2` (centres unmarked) [Example 7, 2-{[3-(4-fluorophenyl)-5-methyl-1,2-oxazol-4-yl]methoxy}-6-(oxolane-2-carbonyl)-5,6,7,8-tetrahydro-1,6-naphthyridine], the Ki came to 6.8 nM.
The same measure for `Cc1onc(-c2ccc(F)cc2)c1COc1ccc2c(n1)CCN(C(=O)CCS(C)(=O)=O)C2` [Example 48, 1-(2-{[3-(4-fluorophenyl)-5-methyl-1,2-oxazol-4-yl]methoxy}-5,6,7,8-tetrahydro-1,6-naphthyridin-6-yl)-3-methanesulfonylpropan-1-one]: 33 nM.
In the case of `Cc1nnn(-c2ccc(F)cc2)c1COc1ccc2c(n1)CCN(C(=O)c1ccccn1)C2` [Example 26, 2-{[1-(4-fluorophenyl)-4-methyl-1H-1,2,3-triazol-5-yl]methoxy}-6-(pyridine-2-carbonyl)-5,6,7,8-tetrahydro-1,6-naphthyridine], the Ki stood at 80 nM.
`Cc1nnn(-c2ccc(F)cc2)c1COc1ccc2c(n1)CCN(C(=O)C1(C)CCOC1)C2` (centres unmarked) [Example 31, 2-{[1-(4-fluorophenyl)-4-methyl-1H-1,2,3-triazol-5-yl]methoxy}-6-(3-methyloxolane-3-carbonyl)-5,6,7,8-tetrahydro-1,6-naphthyridine]: the inhibitory constant (Ki) was found to be 44 nM.

One may read the Ki as a dissociation constant, usually derived from enzyme kinetics or from competition with a known ligand.
